The assay concerns L1210 leukemia ip in BDF1 mice, survival T/C. Kind of assay: NCI In Vivo Anticancer Drug Screen. Data for tumor model L1210 Leukemia (intraperitoneal) in B6D2F1 (BDF1) mice. Particulars: endpoint: mean survival time, higher = longer survival. In outline:
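Mice bearing the transplanted tumor received compound or vehicle. Survival of the treated group was divided by that of the vehicle-treated control group to give the ratio.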

[1] abbreviates: dose: 100.0 mg/kg/injection, schedule: Q04DX003 (ip), vehicle: Klucel (hydroxypropylcellulose) (HPC).
[2] abbreviates: dose: 200.0 mg/kg/injection, schedule: Q04DX003 (ip), vehicle: Klucel (hydroxypropylcellulose) (HPC).
Setting [3] is: dose: 400.0 mg/kg/injection, schedule: Q04DX003 (ip), vehicle: Klucel (hydroxypropylcellulose) (HPC).
Setting [4] is: dose: 100.0 mg/kg/injection, schedule: Q01DX001 (ip), vehicle: carboxymethylcellulose (CMC).
[5] abbreviates: dose: 200.0 mg/kg/injection, schedule: Q01DX001 (ip), vehicle: carboxymethylcellulose (CMC).
[6] abbreviates: dose: 400.0 mg/kg/injection, schedule: Q01DX001 (ip), vehicle: carboxymethylcellulose (CMC).
Where [7] appears, read: dose: 100.0 mg/kg/injection, schedule: Q04DX002 (ip), vehicle: Klucel (hydroxypropylcellulose) (HPC).
Setting [8] is: dose: 200.0 mg/kg/injection, schedule: Q04DX002 (ip), vehicle: Klucel (hydroxypropylcellulose) (HPC).
The mark [9] stands for this setting: dose: 400.0 mg/kg/injection, schedule: Q04DX002 (ip), vehicle: Klucel (hydroxypropylcellulose) (HPC).
The mark [10] stands for this setting: dose: 100.0 mg/kg/injection, schedule: Q01DX009 (ip), vehicle: Klucel (hydroxypropylcellulose) (HPC).
[11] abbreviates: dose: 200.0 mg/kg/injection, schedule: Q01DX009 (ip), vehicle: Klucel (hydroxypropylcellulose) (HPC).
Where [12] appears, read: dose: 100.0 mg/kg/injection, schedule: Q01DX001 (ip), vehicle: saline.
[13] abbreviates: dose: 200.0 mg/kg/injection, schedule: Q01DX001 (ip), vehicle: saline.
Where [14] appears, read: dose: 400.0 mg/kg/injection, schedule: Q01DX001 (ip), vehicle: saline.
The mark [15] stands for this setting: dose: 100.0 mg/kg/injection, schedule: Q01DX009 (ip), vehicle: saline with Tween-80.

“And” between values parts separate entries of the source, which are not always exact repeats. Identical values can stand only once. Toxic doses and inconclusive results are not listed.

As for `Cc1nc2ccc(N=Cc3ccc(N(CCCl)CCCl)cc3C)cc2[nH]1`, the T/C runs as follows: under setting [1], 104 % of control; under setting [2], 102 % of control; under setting [3], 101 % of control.
On to `CCOc1ccccc1/C=N/Nc1nnc(N/N=C/c2ccccc2OCC)c2ccccc12`, for which the T/C runs as follows: (dose: 50.0 mg/kg/injection, schedule: Q01DX001 (ip), vehicle: carboxymethylcellulose (CMC)) 91 % of control; under setting [4], 97 % of control; under setting [5], 97 % of control; under setting [6], 91 % of control.
On to `O=C(O)COc1ccc(F)cn1`, for which the T/C is, setting by setting: under setting [7], 101 % of control; under setting [8], 93 % of control; under setting [9], 114 % of control.
In the case of `CC1(C)C2CC3C(=CCC4C(=O)OC(=O)C43)C1C2` (stereo not given), the T/C under setting [10] was 104 % of control; the T/C under setting [1] was 101 % of control; the T/C under setting [11] was 100 % of control; the T/C under setting [2] is 100 % of control; the T/C under setting [3] is 100 % of control.
Take `OCC(O)C(O)C(O)C(O)C(c1ccc(Cl)cc1)c1ccc(Cl)cc1` (stereo not given): the T/C is, setting by setting: (dose: 50.0 mg/kg/injection, schedule: Q01DX001 (ip), vehicle: saline) 101 % of control and 98 % of control; under setting [12], 101 % of control and 93 % of control and 88 % of control; under setting [13], 95 % of control and 91 % of control; under setting [14], 95 % of control and 96 % of control.
In the case of `Nc1ccccc1SC(CC(=O)c1ccccc1)c1cccc([N+](=O)[O-])c1` (stereo not given), the T/C is 112 % of control (dose: 100.0 mg/kg/injection, schedule: Q01DX005 (ip), vehicle: Klucel (hydroxypropylcellulose) (HPC)); 95 % of control under setting [7]; 105 % of control (dose: 200.0 mg/kg/injection, schedule: Q01DX005 (ip), vehicle: Klucel (hydroxypropylcellulose) (HPC)); 87 % of control under setting [11]; 110 % of control under setting [8]; 91 % of control (dose: 400.0 mg/kg/injection, schedule: Q01DX005 (ip), vehicle: Klucel (hydroxypropylcellulose) (HPC)). Also, the T/C under setting [9] is 89 % of control.
As to `N#CN1CC(C(=O)N2CCCCC2)C=C2c3cccc4[nH]cc(c34)CC21` (stereo not given), the T/C reads like this: (dose: 4.0 mg/kg/injection, schedule: Q04DX003 (ip), vehicle: saline) 96 % of control; (dose: 6.25 mg/kg/injection, schedule: Q04DX003 (ip), vehicle: saline) 119 % of control; (dose: 8.0 mg/kg/injection, schedule: Q04DX003 (ip), vehicle: saline) 95 % of control; (dose: 12.5 mg/kg/injection, schedule: Q04DX003 (ip), vehicle: saline) 118 % of control; (dose: 16.0 mg/kg/injection, schedule: Q04DX003 (ip), vehicle: saline) 86 % of control; (dose: 25.0 mg/kg/injection, schedule: Q04DX003 (ip), vehicle: saline) 115 % of control. In addition, the T/C (dose: 50.0 mg/kg/injection, schedule: Q04DX003 (ip), vehicle: saline) was 90 % of control.
In the case of `C=C1OC(n2cnc3c(=N)n(O)cnc32)C2OC(C)(C)OC12` (stereo not given), the T/C is, setting by setting: (dose: 100.0 mg/kg/injection, schedule: Q01DX005 (ip), vehicle: saline) 96 % of control; (dose: 200.0 mg/kg/injection, schedule: Q01DX005 (ip), vehicle: saline) 102 % of control.
As to `O=C(Nc1ccc(F)cc1)Oc1ccc([N+](=O)[O-])cc1`, the T/C runs as follows: (dose: 25.0 mg/kg/injection, schedule: Q01DX009 (ip), vehicle: saline) 106 % of control; (dose: 50.0 mg/kg/injection, schedule: Q01DX009 (ip), vehicle: saline) 100 % of control; (dose: 100.0 mg/kg/injection, schedule: Q01DX009 (ip), vehicle: saline) 97 % of control and 106 % of control; (dose: 200.0 mg/kg/injection, schedule: Q01DX009 (ip), vehicle: saline) 95 % of control; (dose: 400.0 mg/kg/injection, schedule: Q01DX009 (ip), vehicle: saline) 97 % of control.
Turning to `O=C(O)C1CCCCC1C(=O)N(Cc1ccccc1)Cc1ccccc1` (stereo not given), the T/C is, setting by setting: under setting [10], 98 % of control; under setting [11], 102 % of control; (dose: 400.0 mg/kg/injection, schedule: Q01DX009 (ip), vehicle: Klucel (hydroxypropylcellulose) (HPC)) 90 % of control.
For the compound `Cc1cc(P(=O)(O)O)ccc1Cl`, the T/C (dose: 100.0 mg/kg/injection, schedule: Q01DX009 (ip), vehicle: acetone) was 87 % of control and the T/C (dose: 200.0 mg/kg/injection, schedule: Q01DX009 (ip), vehicle: acetone) is 90 % of control.
For `NC(=O)C1C(=O)c2cccc3c2C1CCCC3` (stereo not given), the T/C is, setting by setting: under setting [4], 90 % of control; under setting [5], 95 % of control; under setting [6], 92 % of control.
With `CC(=O)OCC1OC(N2C(=O)/C(=C/c3ccc(N(C)C)cc3)SC2=S)C(OC(C)=O)C(OC(C)=O)C1OC(C)=O` (stereo not given), the T/C was 100 % of control (dose: 25.0 mg/kg/injection, schedule: Q01DX005 (ip), vehicle: other); 98 % of control (dose: 50.0 mg/kg/injection, schedule: Q01DX005 (ip), vehicle: other); 94 % of control (dose: 100.0 mg/kg/injection, schedule: Q01DX005 (ip), vehicle: other); 95 % of control (dose: 200.0 mg/kg/injection, schedule: Q01DX005 (ip), vehicle: other); 93 % of control (dose: 400.0 mg/kg/injection, schedule: Q01DX005 (ip), vehicle: other).
In the case of `CCOC(=O)NCC(C)(C)C`, the T/C is 104 % of control under setting [12], 107 % of control under setting [13] and 93 % of control under setting [14].
For the compound `COC1=NS(=O)(=O)CC(N2C(=O)CCC2=O)O1` (stereo not given), the T/C under setting [1] was 98 % of control, the T/C under setting [2] is 109 % of control and the T/C under setting [3] was 101 % of control.
Take `O=C(Nc1ccccc1C(F)(F)F)c1cccc(C(=O)Nc2ccccc2C(F)(F)F)c1`: the T/C by setting is: under setting [15], 86 % of control; (dose: 100.0 mg/kg/injection, schedule: Q04DX003 (ip), vehicle: saline with Tween-80) 87 % of control; (dose: 400.0 mg/kg/injection, schedule: Q01DX009 (ip), vehicle: saline with Tween-80) 88 % of control.
For the compound `CCCCOC(=O)C1=C(C(=O)OCCCC)CCCC1`, the T/C is, setting by setting: under setting [15], 98 % of control; (dose: 200.0 mg/kg/injection, schedule: Q01DX009 (ip), vehicle: saline with Tween-80) 104 % of control.
As to `Cc1c(Cl)c(=O)[nH]c2ccccc12`, the T/C was 101 % of control (dose: 50.0 mg/kg/injection, schedule: Q01DX009 (ip), vehicle: Klucel (hydroxypropylcellulose) (HPC)); 97 % of control under setting [10]; 106 % of control under setting [11].
For `Cc1c(CCO)sc[n+]1Cc1ccccc1[N+](=O)[O-]`, the T/C by setting is: (dose: 5.0 mg/kg/injection, schedule: Q01DX001 (ip), vehicle: saline) 102 % of control; (dose: 10.0 mg/kg/injection, schedule: Q01DX001 (ip), vehicle: saline) 100 % of control; (dose: 20.0 mg/kg/injection, schedule: Q01DX001 (ip), vehicle: saline) 102 % of control; (dose: 40.0 mg/kg/injection, schedule: Q01DX001 (ip), vehicle: saline) 105 % of control; (dose: 80.0 mg/kg/injection, schedule: Q01DX001 (ip), vehicle: saline) 98 % of control; under setting [12], 93 % of control.
Regarding `CCCn1cnc2c(=S)nc[nH]c21`, the T/C runs as follows: (dose: 12.5 mg/kg/injection, schedule: Q01DX Z (ip), vehicle: carboxymethylcellulose (CMC)) 108 % of control; (dose: 25.0 mg/kg/injection, schedule: Q01DX Z (ip), vehicle: carboxymethylcellulose (CMC)) 102 % of control; (dose: 37.5 mg/kg/injection, schedule: Q04DX003 (ip), vehicle: Klucel (hydroxypropylcellulose) (HPC)) 97 % of control; (dose: 50.0 mg/kg/injection, schedule: Q01DX Z (ip), vehicle: carboxymethylcellulose (CMC)) 104 % of control; (dose: 75.0 mg/kg/injection, schedule: Q04DX003 (ip), vehicle: Klucel (hydroxypropylcellulose) (HPC)) 103 % of control; (dose: 150.0 mg/kg/injection, schedule: Q04DX003 (ip), vehicle: Klucel (hydroxypropylcellulose) (HPC)) 123 % of control. Moreover, where the note is “dose: 300.0 mg/kg/injection, schedule: Q04DX003 (ip), vehicle: Klucel (hydroxypropylcellulose) (HPC)”, the T/C is 151 % of control.

For the origin of these results see PubChem BioAssay AID248 (DTP/NCI, 2004).
